{
  "source": "patent US7678386B2",
  "about": "“Liposomes coated with selected antibodies that bind to aminophospholipids” (Board of Regents the University of Texas, priority 2002, dated 2010)",
  "key": {"[1]": {"experiment": "ELISA on plates coated with phospholipids (specificity)", "format": "binding", "conditions": "identical antibody concentration", "method": "The protocol entails coating 96-well plate with PS as follows: dilute the PS stock solution in n-hexane to 10 μg/ml and mix well. Add 50 μl to each well and allow this to evaporate for one hour. Add 200 μl of 10% serum (or other blocking buffer) to each well, cover and maintain at room temperature for 2 hours or overnight at 4° C. Wash the plate three times with PBS. Add the primary antibody (dilute in blocking buffer) and incubate for 2 hours at 37° C. Wash three times with PBS. Add 100 μl/well of secondary antibody (typically goat. anti-mouse IgG-HRP or other appropriate secondary antibody) and incubate for 1 hour at 37° C. Wash the plate three times with PBS. Develop the ELISA by adding 100 μl of developing solution to each of the wells, develop for 10 minutes, then add 100 μl of stop solution to each plate and read the O.D. at 490 nm.\nThe specificity of the antibodies was determined by ELISA using plates coated with the following phospholipids: PS, phosphatidylserine; PE, phosphatidylethanolamine; PI, phosphatidylinositol: PA. phosphatidic acid; PG, phosphatidylglycerol; PC, phosphatidylcholine: CL, cardiolipin; and SM, sphingomyelin.\nThe 1B9, 2G7 and 7C5 antibodies behave essentially the same. These antibodies recognize only PS and require serum or serum proteins for binding to PS. […]"}, "[2]": {"experiment": "Reactivity with plastic-immobilized phospholipid (ELISA)", "conditions": "read-out: EC50 of binding", "method": "Phospholipids were dissolved in n-hexane to a concentration of 50 μg/ml. 100 μl of this solution was added to wells of 96-well microtiter plates. After evaporation of the solvent in air, the plates were blocked for 2 h with 10% fetal bovine serum diluted in DPBS containing 2 mM Ca^2+ (binding buffer).\n9D2 antibody or annexin V were diluted in the binding buffer in the presence of 10% serum at an initial concentration of 6.7 nM. Serial two-fold dilutions were prepared in the plates (100 μl per well). The plates were then incubated for 2 h at room temperature. The plates were washed and the 9D2 and annexin V were detected by goat anti-rat IgM conjugated to HRP and rabbit anti-human annexin V followed by goat anti-rabbit IgG conjugated to HRP (all diluted 1:1000), respectively. Secondary reagents were detected by using chromogenic substrate OPD followed by reading plates at 490 nm using a microplate reader (Molecular Devices, Palo Alto, Calif.).\nThe specificity of the 9D2 antibody binding was validated by using control rat IgM of irrelevant specificity (Pharmingen, San Diego, Calif.). The specificity of annexin V binding to phospholipids, which is Ca^2+-dependent, was determined by diluting the reagent in the DPBS containing 5 mM EDTA. Additional negative controls consisted of washing the plates with the binding buffer containing 0.2% of a detergent Tween 20. This treatment extracts lipids, thus removing the phospholipid that was absorbed to plastic. Neither 9D2 antibody nor annexin V bound to detergent-washed plates."}, "[3]": {"test_system": "vascular endothelium of tumors and normal organs", "experiment": "Detection of anionic phospholipids in tumor bearing mice in vivo (9D2, annexin V)", "parameters": "species or system mouse", "method": "For localization studies, 2×10^7 L540 human Hodgkin's lymphoma cells or 1×10^7 cells of other tumor types were injected subcutaneously into the right flank of SCID mice (Charles River. Wilmington, Mass.). Tumors were allowed to reach a volume of 0.4-0.7 cm^3. A minimum of three animals per group was used. Studies were replicated at least three times.\nFemale nu/nu or SCID mice were purchased from Charles River. MDA-MB-231 human mammary carcinoma cells were implanted into the mammary fat pad according to a published protocol (Price. 1996). Briefly, mice were anesthetized and a 5-mm incision was made in the skin over the lateral thorax. The mammary pad was exposed to ensure the correct site for injection of 1×10^7 MDA-MB-231 cells re-suspended in 0.1 ml of saline.\nTo detect externally-positioned phospholipids, methods were performed essentially as previously described (Example V; Ran et al., 1998). Tumor-bearing SCID mice were injected intravenously with either 50 μg of 9D2 or biotinylated 9D2 antibody or 100 μg of biotinylated annexin V. Sixty min later mice were sacrificed and their blood circulation was exsanguinated and perfused with heparinized saline as previously described (Burrows et al., 1992). All major organs and tumor were harvested and snap-frozen for preparation of cryosections.\nSections were blocked with PBS containing 10% serum. To prevent loss of phospholipids during slide processing, detergents and organic solvents were omitted from blocking and washing buffers. Rat IgM was detected using goat anti rat IgM (μspecific)-HRP conjugate followed by development with carbazole or DAB (Fries et al., 1993). Biotinylated reagents were detected by streptavidin conjugated to HRP.\nTumor sections derived from mice injected with saline or rat IgM of irrelevant specificity served as negative controls. Additional controls consisted of incubating the slides in 1% Triton solution or in acetone for 10 min. These treatments extract phospholipids. No signal was detected under these conditions. The number of positive vessels per high power field was determined at magnification of ×100. At least 10 fields per section were examined and the average percentage of positive vessels was calculated. Staining of the sections by this method for the presence of 9D2 or annexin V detects cells having externalized anionic phospholipids that were accessible for binding by the reagents in vivo.\nStructures with localized 9D2 antibody or annexin V were identified as blood vessels by morphological appearance on DAB-stained sections and by co-incident staining with the pan-endothelial cell marker, MECA 32 on serial sections of frozen tissues. Quantification on DAB-stained sections was done by counting vessels stained by MECA 32, 9D2 or annexin V in serial sections of a tumor. Six slides of each tumor type derived from 6 mice injected with 9D2 antibody, control rat IgM or annexin V were examined. At least 10 random fields per section (0.317 mm^2/field) were scored in blinded fashion by two independent observers. The mean numbers and standard errors of vessels stained by 9D2, annexin V or MECA 32 were calculated. The mean number of 9D2 or annexin V-positive vessels determined in each tumor type group was compared to the mean number of MECA 32-positive vessels in the same tumor group. The percentage of 9D2 or annexin V-positive vessels was calculated."}},
  "note": "Read-outs that look alike come from different tables or passages of the source.",
  "data": [
    {"substance": "Annexin V: high affinity PS binding ligand; natural ligand of anionic phospholipids and PE", "values": [
      {"measurement": "Relative Strength of Reactivity on ELISA", "setting": "[1]", "value": "PS = PE = PI = PA > CL > PG"},
      {"measurement": "EC50", "setting": "[2]; CL", "value": 0.13, "unit": "nM"},
      {"measurement": "EC50", "setting": "[2]; PA", "value": 0.1, "unit": "nM"},
      {"measurement": "EC50", "setting": "[2]; PC", "value": "> 8", "unit": "nM"},
      {"measurement": "EC50", "setting": "[2]; PE", "value": 0.1, "unit": "nM"},
      {"measurement": "EC50", "setting": "[2]; PG", "value": 0.25, "unit": "nM"},
      {"measurement": "EC50", "setting": "[2]; PI", "value": 0.05, "unit": "nM"},
      {"measurement": "EC50", "setting": "[2]; PS", "value": 0.1, "unit": "nM"},
      {"measurement": "EC50", "setting": "[2]; SM", "value": "> 8", "unit": "nM"},
      {"measurement": "PS-positive vessels of MECA 32-stained vessels (mean ±SE)", "setting": "[3]; B16 tumor", "value": "21.3 ± 6.6", "unit": "%"},
      {"measurement": "PS-positive vessels of MECA 32-stained vessels (mean ±SE)", "setting": "[3]; L540cy tumor", "value": "16.7 ± 3.9", "unit": "%"},
      {"measurement": "PS-positive vessels of MECA 32-stained vessels (mean ±SE)", "setting": "[3]; MDA-MB-231 tumor", "value": "45.3 ± 5.6", "unit": "%"},
      {"measurement": "PS-positive vessels of MECA 32-stained vessels (mean ±SE)", "setting": "[3]; MDA-MB-231 tumor, listed as annexin V", "value": 40, "unit": "%"},
      {"measurement": "PS-positive vessels of MECA 32-stained vessels (mean ±SE)", "setting": "[3]; NCI-H358 tumor", "value": 15, "unit": "%"},
      {"measurement": "vascular localization in normal organs", "setting": "[3]; nine of ten normal organs examined (kidney tubules non-specific)", "value": "No vascular localization"}
    ]}
  ]
}
